Laboratory results as given in PubChem BioAssay AID492987 (Johns Hopkins Ion Channel Center, 2010).
Activity calls are given as the source filed them.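 The calls were made as follows: active = over 30% block of the TRPC6 ion channel at some tested dose, plus a fitted dose-response curve; inactive = no block at any dose, or no fitted curve.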

Target: Short transient receptor potential channel 6 (Mus musculus) (UniProt Q61143)
Test: mouse TRPC6 channel blockers, concentration series – HEK293 cells, membrane potential dye, IC50, selectivity assay for selective TRPC4 inhibitor project, dose response (AID 492987)
Details: at 20 µM (top of the series)

Short transient receptor potential channel 6 (Mus musculus), sequence (Q61143 whole entry, looked up): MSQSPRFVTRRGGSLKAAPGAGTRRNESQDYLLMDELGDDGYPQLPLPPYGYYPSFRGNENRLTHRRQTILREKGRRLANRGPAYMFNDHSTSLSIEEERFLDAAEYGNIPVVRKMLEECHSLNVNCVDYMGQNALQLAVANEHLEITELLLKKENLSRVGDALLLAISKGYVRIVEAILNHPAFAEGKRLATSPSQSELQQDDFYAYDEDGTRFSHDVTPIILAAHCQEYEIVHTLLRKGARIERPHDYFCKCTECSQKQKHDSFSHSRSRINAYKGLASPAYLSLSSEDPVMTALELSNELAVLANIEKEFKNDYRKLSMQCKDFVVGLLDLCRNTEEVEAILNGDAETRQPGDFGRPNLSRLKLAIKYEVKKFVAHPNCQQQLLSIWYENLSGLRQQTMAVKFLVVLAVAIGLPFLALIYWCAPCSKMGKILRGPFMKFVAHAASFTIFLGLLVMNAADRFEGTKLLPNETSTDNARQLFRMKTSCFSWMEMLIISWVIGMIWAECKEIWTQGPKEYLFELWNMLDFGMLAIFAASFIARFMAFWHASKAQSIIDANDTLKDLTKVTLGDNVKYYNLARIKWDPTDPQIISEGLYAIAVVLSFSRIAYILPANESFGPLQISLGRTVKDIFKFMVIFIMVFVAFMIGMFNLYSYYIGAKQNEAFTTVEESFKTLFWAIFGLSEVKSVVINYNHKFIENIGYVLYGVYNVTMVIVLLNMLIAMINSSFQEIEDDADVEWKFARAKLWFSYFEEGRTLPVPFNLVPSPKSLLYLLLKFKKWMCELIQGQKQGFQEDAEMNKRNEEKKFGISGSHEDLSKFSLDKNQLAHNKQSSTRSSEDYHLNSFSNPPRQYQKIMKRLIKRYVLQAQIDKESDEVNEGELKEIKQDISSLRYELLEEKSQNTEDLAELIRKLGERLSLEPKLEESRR

| Structure (SMILES) | fluorescence ratio, lower = inhibition |
| --- | --- |
| Cc1cc(N2CCN(c3ncccn3)CC2)nc2ccccc12 | inactive |
| Cc1ccnc(N2CCCC2)n1 | inactive |
| Cc1cc(N2CCN(c3ccccc3C#N)CC2)nc2ccccc12 | inactive |
| FC(F)(F)c1cc(N2CCCCC2)nc2ccccc12 | inactive |
| Cc1ccnc(N2CCCCC2)c1 | inactive |
| c1ccc(-c2cc(N3CCCCC3)nc3ccccc23)cc1 | inactive |
| Cc1cc(N2CCN(CC3CCCO3)CC2)nc2ccccc12 (stereo not given) | inactive |
| Cc1cc(N2CCCCCC2)nc2ccc(F)cc12 | inactive |
| Cc1cc(N2CC(C)CC(C)C2)nc2ccccc12 (stereo not given) | inactive |
| c1ccc(-c2cc(N3CCCCCC3)nc3ccccc23)cc1 | inactive |
| Cc1cc(N2CCOCC2)nc2ccccc12 | inactive |
| Cc1cc(N2CCCCC2)nc2c(C)cccc12 | inactive |
| COc1ccc(N2CCN(c3cc(C)c4ccccc4n3)CC2)cc1 | inactive |
| Cc1cc(N2CCCC(O)C2)nc2ccccc12 (stereo not given) | inactive |
| Cc1cc(N2CCN(C)CC2)nc2ccccc12 | inactive |
| Cc1ccnc(N2CCCCCC2)n1 | inactive |
| Cc1ccnc(N2CCCC2)c1 | inactive |
| Cc1cc(N2CCCCCC2)nc2c(C)cccc12 | inactive |
| Cc1ccnc(N2CCCCC2)n1 | inactive |
| CCN(CC)c1cc(C)c2ccccc2n1 | inactive |
| Cc1ccnc(N2CCCCCC2)c1 | inactive |
| COc1ccccc1N1CCN(c2cc(C)c3ccccc3n2)CC1 | inactive |
| FC(F)(F)c1cc(N2CCCCCC2)nc2ccccc12 | inactive |
| Cc1cc(N(C)CCN(C)C)nc2ccccc12 | inactive |
| CCc1ccc2nc(N3CCCCCC3)cc(C)c2c1 | inactive |
| Cc1cc(N2CCC(C)CC2)nc2ccccc12 | inactive |
| c1ccc(-c2cc(N3CCCC3)nc3ccccc23)cc1 | inactive |
| Cc1cc(N2CCOc3ccccc32)nc2ccccc12 | inactive |
| COCCN(C)c1cc(C)c2ccccc2n1 | inactive |

Same assay, conditions: membrane potential dye fluorescence

| Structure (SMILES) | IC50 [µM] |
| --- | --- |
| Cc1cc(N2CCCCC2)nc2ccccc12 | 17.9 |
